Data as given in patent publication US10947196B2, “Beta adrenergic agonist and methods of using the same” (CURASEN THERAPEUTICS, INC., priority 2019, dated 2021).
Like-named read-outs stand apart in the source and are kept apart here.

How the values were obtained:
[1] = Hepatocyte stability (dog); format: in vitro ADME; details: 0.5×10^6 viable cells/mL
Experimental: 10 mM and 100 μM stock solutions of test compound(s) and a positive control were prepared in appropriate solvent (DMSO). In separate conical tubes, the 10 mM test compound and the positive control were diluted to 100 μM by combining 198 μL of 50% acetonitrile/50% water and 2 μL of 10 mM stock. The 100 μM test compound and the positive control were diluted to 30 μM by combining 140 μL of 50% acetonitrile/50% water and 60 μL of 100 μM stock solution. The 100 μM test compound and the positive control were diluted to 10 μM by combining 180 μL of 50% acetonitrile/50% water and 20 μL of 100 μM stock solution. The 100 μM test compound and the positive control were diluted to 3 μM by combining 194 μL of 50% acetonitrile/50% water and 6 μL of 100 μM stock solution.
Incubation medium (William's E Medium supplemented with GlutaMAX) and hepatocyte thawing medium was placed in a 37° C. water bath, and allowed to warm for at least 15 minutes prior to use. A vial of cryopreserved hepatocytes from storage was then removed, ensuring that the vial remains at cryogenic temperatures until thawing process ensues. Cells were thawed by placing the vial in a 37° C. water bath and gently shaking the vial for 2 minutes. After thawing was completed, the vial was sprayed with 70% ethanol and transferred to a biosafety cabinet.
A wide-bore pipette tip was used to transfer hepatocytes into 50 mL conical tube containing thawing medium. The 50 mL conical tube was placed into a centrifuge and spun at 100 g for 10 minutes. Upon completion of spin, the thawing medium was aspirated and the hepatocytes were resuspended in enough incubation medium to yield ˜1.5×10^6 cells/mL.
Using AOPI staining solution, cells were counted and the viable cell density was determined. Cells with poor viability (<75% viability) are not acceptable for use. […]
All calculations were carried out using Microsoft Excel. Peak areas were determined from extracted ion chromatograms. […]
The in vitro half-life (in vitro t1/2) was determined from the slope value: in vitro t1/2=0.693/k

[2] = Mouse CNS exposure measurement (plasma, CSF, brain); format: in vivo, male C57BL/6J mice; details: male, C57BL/6J; for concentration at 100 min: PO 5 mg/kg; for concentration at 60 min: in vivo, sc, 1 mg/kg, SC 1 mg/kg
Experimental: These rats were typically about 6-8 weeks old, weighing 200 g to 300 g. Animals were fasted overnight and free access to food 4 hours after dosing. A required volume of vehicle was added to reach the target concentration of the test article and vehicle component to prepare for the dosing. The dosing vehicle was PEG400 or 30% PEG400 in saline for IV, or 0.5% methylcellulose in water for PO. For IV dosing, the animals were administered intravenously via tail vein. For PO dosing, the animals were administered via oral gavage. After dosing, blood sample was collected (˜0.2 mL per time point) through jugular vein or heart puncture. Blood of each sample was transferred into plastic micro centrifuge tubes containing EDTA-K2. Collection tubes with blood samples and anticoagulant were inverted several times for proper mixing of the tube contents and then placed on wet ice. The blood samples were centrifuged at 2000 g for 5 minutes at 4° C. to obtain plasma which was stored in a freezer at −75±15° C. prior to analysis. Samples were analyzed using LC-MS/MS. WinNonlin were used for pharmacokinetic calculations.
For CSF sampling, after anesthesia, the foramen magnum was exposed, and a syringe was used with a venoclysis needle to sample the CSF. The CSF samples were stored in polypropylene tubes, then stored in a freezer at −75±15° C. prior to analysis.
For brain sampling, the rats were fully exsanguinated by using a risen of carbon dioxide prior to brain collection. Brain samples were then collected at adopted time point, quick frozen and kept at −75±15° C. All brain samples were weighted and homogenated with PBS by brain weight (g) to PBS volume (mL) ratio 1:3 before analysis. The actual concentration is the detected value multiplied by the dilution factor.
These mice were typically about 6-8 weeks old, weighing 20 g to 30 g. Animals were free access to food before dosing. Sample amount was ˜0.03 mL per time point and sample site was dorsal metatarsal or heart puncture.

concentration at 100 min ([2]; CSF, read-out: Concentration, CSF) [ng/mL] | concentration at 100 min ([2]; brain, read-out: Concentration, Brain) [ng/g] | concentration at 100 min ([2]; plasma, read-out: Concentration, Plasma) [ng/mL] | SMILES | Hepatocyte stability, Dog [1] | concentration at 100 min ([2]; CSF, po, 5 mg/kg, read-out: Concentration, CSF) [ng/mL] | concentration at 100 min ([2]; brain, po, 5 mg/kg, read-out: Concentration, Brain) [ng/g] | concentration at 100 min ([2]; plasma, po, 5 mg/kg, read-out: Concentration, Plasma) [ng/mL] | concentration at 60 min ([2]; read-out: Concentration, Brain) [ng/g] | concentration at 60 min ([2]; read-out: Concentration, CSF) [ng/mL] | concentration at 60 min ([2]; read-out: Concentration, Plasma) [ng/mL]
 |  |  | CC(C)(C)NC[C@H](O)c1cccc(C(F)(F)F)n1 [Compound 03-3] | 5.3 μL/min/10^6 cells | 302 | 988 | 557 |  |  | 
621 | 989 | 1340 | CC(C)(C)NC[C@H](O)c1cccc(C#N)n1 [Compound 03-5, (S)-6-(2-(tert-butylamino)-1-hydroxyethyl)picolinonitrile] | 5.94-7.63 μL/min/10^6 cells |  |  |  |  |  | 
 |  |  | Cc1ncccc1[C@@H](O)CNC(C)(C)C [Compound 03-115] | 8.13 μL/min/10^6 cells |  |  |  | 280 | 157 | 270
